Laboratory results as given in US9776972B2, “Pyrazole derivatives as arginine methyltransferase inhibitors and uses thereof” (priority 2013, dated 2017).

What was measured:
[1] = system: mono-methyl arginine in RKO cells; test: RKO Methylation Assay, In Cell Western (ICW) for mono-methyl arginine and DNA content; type: cell-based; details: Homo sapiens, RKO, 72 h, RKO cells, 72 hours, mono-methyl arginine, percent activation; single experiment or average of multiple experiments; read-out: EC30 (In Cell Western data, Numerical)
Method in brief: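 After fixation, mono-methyl arginine and DNA (DRAQ5) were measured by infrared In-Cell Western imaging at 700/800 nm in RKO cells exposed to compounds for 72 hours. Percent activation used DMSO wells as minimum and 20 μM reference compound as maximum; EC30 curves fitted on triplicate wells.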

human PRMT1 = molecular target: T1, human PRMT1 (Homo sapiens, UniProt Q99873); test: PRMT1 Biochemical Assay (3H-SAM Flashplate, peptide substrate); details: single experiment or average of multiple experiments
T1 construct: GST-tagged PRMT1; made in house; host or cells: High Five insect cells (baculovirus)
Method in brief: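 GST-tagged PRMT1 from baculovirus-infected cells, preincubated with compounds 30 min at room temperature in 20 mM Bicine pH 7.6, 1 mM TCEP, 0.005% BSG, 0.002% Tween 20. Reaction started with ³H-SAM plus biotinylated peptide, stopped with 300 µM cold SAM.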

T1 sequence (Q99873 with tags, fused parts or gaps): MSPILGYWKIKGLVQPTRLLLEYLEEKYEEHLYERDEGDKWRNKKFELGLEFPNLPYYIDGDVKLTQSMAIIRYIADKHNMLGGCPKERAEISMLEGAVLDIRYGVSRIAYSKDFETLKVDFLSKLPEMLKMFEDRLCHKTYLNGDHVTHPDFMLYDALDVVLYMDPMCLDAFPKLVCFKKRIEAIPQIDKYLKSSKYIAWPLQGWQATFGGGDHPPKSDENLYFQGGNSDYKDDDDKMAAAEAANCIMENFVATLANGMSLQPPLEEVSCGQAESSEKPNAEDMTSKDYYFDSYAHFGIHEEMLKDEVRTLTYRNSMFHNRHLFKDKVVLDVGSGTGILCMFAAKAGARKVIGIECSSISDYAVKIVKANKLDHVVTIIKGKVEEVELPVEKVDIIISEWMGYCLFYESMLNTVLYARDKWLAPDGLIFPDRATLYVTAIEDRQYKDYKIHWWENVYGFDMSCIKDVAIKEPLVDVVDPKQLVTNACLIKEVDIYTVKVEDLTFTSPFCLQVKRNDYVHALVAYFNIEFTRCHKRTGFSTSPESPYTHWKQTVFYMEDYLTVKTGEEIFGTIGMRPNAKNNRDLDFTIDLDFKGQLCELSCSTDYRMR

Row | Structure (SMILES) | IC50 (human PRMT1) [nM] | EC30 [1] [µM]
1 | CNCCN(C)Cc1n[nH]cc1-c1ccc(Oc2cccc(F)c2)cc1 [Compound 270] | 2.79 | 1.06
2 | CNCCN(C)Cc1n[nH]cc1-c1cc(CC(C)C)cc(CC(C)C)c1 [Compound 271] | 52.4 | > 20
3 | CNCCN(C)Cc1n[nH]cc1-c1cc(OC(C)C)cc(C(C)C)c1 [Compound 272] | 156 | > 20
4 | CNCCN(C)Cc1c(-c2ccc(OCCCOC)cc2)cnn1C [Compound 276] | > 1000 | > 20
5 | CNCCN(C)Cc1n[nH]cc1-c1ccc(Oc2cccc(C(C)C)c2)cc1 [Compound 277] | 20.2 | > 20
6 | CNCCN(C)Cc1n[nH]cc1-c1ccc(Oc2ccccc2F)cc1 [Compound 279, N^1-((4-(4-(2-fluorophenoxy)phenyl)-1H-pyrazol-3-yl)methyl)-N^1,N^2-dimethylethane-1,2-diamine] | 3.46 | 0.637
7 | CNCCN(C)Cc1c[nH]nc1-c1cc(CC(C)C)cc(CC(C)C)c1 [Compound 281] | 11.2 | 3.52

The remaining compounds from weak to strong by IC50 (human PRMT1), led by results:

Row | IC50 (human PRMT1) [nM] | Structure (SMILES) | EC30 [1] [µM]
8 | 19.3 | CNCCN(C)Cc1c[nH]nc1-c1ccc(Oc2ccccc2C(=O)NC)cc1 [Compound 274] | 3.04
9 | 8.63 | CNCCN(C)Cc1n[nH]c(C)c1-c1ccc(OC(C)C)cc1 [Compound 275] | 0.122
10 | 8.56 | CNCCN(C)Cc1n[nH]cc1-c1cc(Cl)c(OC(C)C)c(Cl)c1 [Compound 273] | 1.3
11 | 4.3 | CC(C)Cc1cc(-c2n[nH]cc2CN(C)CCN)ccc1F [Compound 280] | 1.72
12 | 2.21 | CNCCN(C)Cc1c[nH]nc1-c1cc(Cl)c(OCC2CC2)c(Cl)c1 [Compound 282] | 0.383
